Laboratory results published in patent US20180092908A1, “SMALL MOLECULE OXIDIZERS OF PDI AND THEIR USE” (THE TRUSTEES OF COLUMBIA UNIVERSITY IN THE CITY OF NEW YORK, priority 2015, published 2018).
Converted amounts (≈) assume the structure as drawn. Like-named read-outs stand apart in the source and are kept apart here.

How the values were obtained:
[1] = Mouse microsome stability assay; type: in vitro ADME; conditions: compound 0.5 μM
Experimental: At 0, 5, 15, 30 and 45 minute intervals, an aliquot was taken and quenched with acetonitrile (ACN) containing internal standard. No-cofactor controls at 45 minutes were prepared. Following completion of the experimentation, the samples were analyzed by LC-MS/MS. […] C=initial×exp (−k×t). Intrinsic clearance (CLint) was calculated as liver clearance from the half-life using the following equation: CLint=k×(ml incubation/0.5 mg protein)×(52.5 mg protein/g liver). Results were reported as peak area ratios of analyte to internal standard. The intrinsic clearance (CLint) was determined from the first order elimination constant by non-linear regression. The microsome stability assay, plasma stability assay, and plasma protein binding assay were each performed by Alliance Pharma, Inc. (Malvern, Pa.).

Solubility = conditions: for solubility: Table 4
[2] = biological target: T1, human catalytic PDI A1 a domain (PDIa) (Homo sapiens, UniProt P07237); assay: Isothermal titration calorimetry (ITC) binding to PDIa; conditions: PDIa
T1 construct: made in house; host or cells: Escherichia coli BL21-Gold (DE3)

[3] = biological target: T2, recombinant catalytic a domain of human PDI A1 (PDIa) (Homo sapiens, UniProt P07237); assay: Insulin aggregation assay (PDIa reductase activity); type: biochemical; conditions: Table 5
T2 construct: made in house; host or cells: Escherichia coli BL21-Gold (DE3)
Source text: In this insulin aggregation assay (Xu et al., 2012; Jasuja et al., 2012; Khan et al., 2011; Smith et al., 2004), PDIa reduced the two disulfide bonds between the α- and β-chains of insulin, causing the β-chain to aggregate and precipitate, resulting in an increase in absorbance at 650 nm.
To investigate the mode of binding further and to determine whether the binding was reversible or irreversible, the recovery of enzymatic activity of PDIa after dilution of pre-formed concentrated PDIa-LOC14 complexes was analyzed. LOC14 (750 μM) was incubated with a concentrated solution of PDIa (500 μM). The mixture was then diluted 100-fold and PDI's enzymatic activity was measured in the insulin reduction assay. As a control, the same procedure was also performed on the sample containing an irreversible inhibitor, 16F16 (16F16 at 750 μM and PDIa at 500 μM). […] This illustrated that unlike 16F16, LOC14 binding to PDIa is reversible.

physchem = conditions: DMSO, organic solvent or mixture
PC12 mHTT^Q103 cells = assay: Rescue of PC12 cells from mHTT^Q103 induced cell death (Alamar blue viability); type: cell-based; conditions: Rattus norvegicus
Source text: PC12 mHTT^Q103 cells were a gift from Erik S. Schweitzer (UCLA School of Medicine, Los Angeles, Calif.). These cells are stably transfected with the first exon of human HTT gene containing the pathogenic 103 CAG/CAA repeat expansion, under the control of the ecdysteroid promoter (Aiken et al., 2004). The plasmid also contains a Bombyx mori ecdysone receptor gene fused at N-terminal with VP16 transactivation domain (Suhr et al., 1998; Vilaboa et al., 2011). Addition of the ecdysone analog, tebufenozide, to the cell culture medium is used to initiate the transcription of mutant HTT (Aiken et al., 2004).
PC12 mHTT^Q103 cells were cultured in DMEM containing 4.5 g/I glucose, 25 mM HEPES, sodium pyruvate, and no L-glutamine (Mediatech, cat. no. 15-018-CV), supplemented with 10% (v/v) Cosmic Calf serum, 2 mM L-glutamine, 100 units/mL of penicillin-streptomycin, and 0.5 mg/ml active geneticin. Cells were grown at 37° C., 9.5% CO2, and the medium was replaced with fresh medium every 2-3 days. To induce mHTT^Q103 expression for experiments, tebufenozide, a gift from Lynne Moore and Fred H. Gage (The Salk Institute for Biological Studies, La Jolla, Calif.), was added to the medium at 200 nM final concentration from 1 mM stock in 85% ethanol.
LOC mother plates with compounds at 4 mg/ml were thawed and spun down (1000 rpm, 20° C., 1 min) prior to use. Biomek FX (Beckman Coulter) robotic liquid dispenser was used to handle all liquid transferring and mixing. […] Two fold serial dilution was performed across five daughter plates by transferring 50 μl of compounds (at […]) from the D1 plate into 50 μl of PC12 medium in daughter plate D2, mixing, and then repeating the process for the remaining three plates. Daughter plate D1 with compounds at […], daughter plate D3 with compounds at 20 μl/ml and daughter plate D5 with compounds at 5 μl/ml were then used for the screen. Assay plates were set up by seeding tebufenozide-induced PC12 mHTT^Q103 cells into 384-well black, clear-bottom plates (Corning Inc. cat. no. 3712) at a density of 7,500 cells per well in 57 μl PC12 medium without geneticin. Three microliters of compound from the daughter plates (D1, D3, and D5) were added to the assay plates for a final compound concentration of 4 μl/ml, 1 μl/ml, and 0.25 μl/ml. Four wells containing uninduced PC12 mHTT^Q103 cells and four wells containing medium only, were also included on each plate as controls. The assay plates were incubated at 37° C., 9.5% CO2 for 48 hours. Twenty microliters of 40% Alamar blue (Life Technologies cat. no. DAL1100) solution in PC12 medium was added to each well (1:10 final dilution) and the plates were incubated for an additional 12-24 hours at 37° C., 9.5% CO2. Alamar blue fluorescence was read on a fluorescence plate reader (PerkinElmer Victor3) with 530 nm excitation filter and 590 nm emission filter. Each compound concentration was tested in triplicate.
The follow-up testing of primary screen hits was performed in a similar way. Fresh powder stocks of primary hits were re-ordered from vendors, dissolved in DMSO and tested in a two-fold serial dilution across 10 wells in both tebufenozide-induced and uninduced PC12 mHTT^Q103 cells. Dose-response curves were plotted as mean±SD and fit to either four-parameter sigmoidal (for uninduced cells) or bell-shaped (induced) function using Prism (GraphPad Software).
A cascade of two assays was used, involving both a phenotypic high-throughput screening (HTS) assay and an in vitro PDI reductase assay, to identify neuroprotective PDI-inhibiting compounds. […] Alamar blue was used as a fluorescent readout for viability after 48 hours of compound treatment and mHTT^Q103 induction. […] All the candidate hit compounds were re-tested in a two-fold dilution series.

[4] = biological target: T1, human catalytic PDI A1 a domain (PDIa); assay: Isothermal titration calorimetry (ITC) binding to PDIa; conditions: PDIa; remark: listed apart in the source
Experimental: All ITC experiments were carried out at 25° C. on MicoCal Auto-ITC200 system (GE Healthcare). Reduced PDIa was dialyzed into ITC buffer (20 mM sodium phosphate buffer pH 7.8) and loaded into a sample cell at 40 μM concentration. The compound solution was loaded into a syringe at 400 μM in the same ITC buffer with a final DMSO concentration at 0.4% (v/v). ITC titration experiments were carried out at 25° C. with 19 injections, 2 μl per injection, and 180 seconds between each injection. The reference cell power was set to 5 μcal/sec. A control experiment was performed for each compound, where each compound was titrated into buffer to account for heat released due to dilution. This background was subtracted from test data before a final dissociation constant was obtained. Data were analyzed using a one-site binding model in Origin 7.1 software. […] Gibbs free energy, ΔG, was calculated from equation ΔG=ΔH−TΔS. All other parameters, Ka, n, ΔH, ΔS, were determined directly from the titration data.
For ITC experiments with 16F16 pre-treatment, 40 μM PDIa (after dialysis into ITC buffer) was treated with 200 μM 16F16 for 12-15 hours at 4° C. Next day the whole solution was loaded into the sample cell. LOC14 at 400 μM in ITC buffer was loaded into syringe and titrated into PDIa+16F16 loaded cell. For control experiments, ITC buffer with 200 μM 16F16 was used in the cell, while 400 μM LOC14 in ITC buffer was used in the syringe.
The binding mode of LOC14 to PDIa was next investigated using isothermal titration calorimetry (ITC). ITC measures the heat released or absorbed during a biomolecular interaction. It is a direct analytical method for determining the binding and thermodynamic parameters, such as reaction stoichiometry (n), binding constants (Ka and Kd), enthalpy (ΔH), entropy (ΔS), and free energy (ΔG) of an interaction.

[5] = first site, Table 4, read-out: ITC KD1 (two binding site)
[6] = first site, Table 5, read-out: ITC Assay KD1 (2 binding sites)
[7] = PC-12, Table 5, read-out: Cell Viability Assay EC50
[8] = Table 5, read-out: ITC Assay KD

T2 sequence (P07237 with tags, fused parts or gaps): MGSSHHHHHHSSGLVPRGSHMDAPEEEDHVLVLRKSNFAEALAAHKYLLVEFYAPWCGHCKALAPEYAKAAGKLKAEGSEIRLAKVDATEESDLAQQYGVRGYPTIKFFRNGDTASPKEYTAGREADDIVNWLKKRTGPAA
T1 sequence (P07237 with tags, fused parts or gaps): as above

| SMILES | Insulin Assay (either active or inactive) [3] | solubility (physchem) [mM] | EC50 (PC12 mHTT^Q103 cells; [7]) [µM] | ITC Assay KD ([4]; Table 5) | further results |
| --- | --- | --- | --- | --- | --- |
| CCOc1ccc2ccc(=O)oc2c1 [7-Ethoxycoumarin, reference compound] |  |  |  |  | Elimination rate constant (k) ([1]; mouse liver microsomes): 0.2341; Intrinsic Clearance (CLint), mL/min/g liver ([1]; mouse liver microsomes): 24.58 mL/min/g liver; half-life at 0.5 μM ([1]; mouse, liver microsomes, pH 7.4, mouse liver microsomes, read-out: Half-life (t1/2)): 3 min |
| O=c1c2ccccc2[se]n1-c1ccccc1 [Ebselen, reference compound] |  |  |  |  | solubility (Solubility): Poor; Kd [2, 5]: 0.0052 µM; Kd ([2]; second site, Table 4, read-out: ITC KD2 (two binding site)): 0.111 µM |
| O=c1c2ccccc2sn1Cc1ccccc1 [LC-5, 2-benzylbenzo[d]isothiazol-3(2H)-one] | Active |  |  |  | Solubility in DMSO (Solubility; Table 5): 100 mM in DMSO; Kd [2, 5]: 0.0427 µM; Kd [2, 6]: 0.0427 µM; Kd ([2]; read-out: ITC Assay KD2 (2 binding sites), second site, Table 5): 2.27 µM |
| O=C(Nc1ccccc1)n1sc2ccccc2c1=O [LC-6, 3-oxo-N-phenylbenzo[d]isothiazole-2(3H)-carboxamide] | not active | 50 (≈ 13500 µg/mL) | 0.476 | KD = N/A irreversible or not active | ITC KD ([4]; Table 4): KD = not active |
| CC(C)(C)OC(=O)NC1CCN(Cn2sc3ccccc3c2=O)CC1 [LC-8] | Active | 50 (≈ 18200 µg/mL) | 0.384 |  | Solubility in DMSO (Solubility; Table 5): 50 mM in DMSO; Kd ([4]; Table 4, read-out: ITC KD): 0.0943 µM; Kd [4, 8]: 0.0943 µM |
| O=c1c2ccccc2sn1CN1CCN(Cn2sc3ccccc3c2=O)CC1 [LC-9, 2,2′-(piperazine-1,4-diylbis(methylene))bis(benzo[d]isothiazol-3(2H)-one)] | Active | < 6.75 | 0.173 |  | solubility (Solubility): poor solubility; Solubility (words, printed in ITC Assay column) (Solubility; Table 5): poor solubility |
| O=C(C1CC1)N1CCN(C(=O)n2sc3ccccc3c2=O)CC1 [LC-14] | not active | 30 (≈ 9940 µg/mL) | > 50 | KD = N/A irreversible or not active |  |
| O=C(C1CC1)N1CCN(Cn2sc3ccc(Cl)cc3c2=O)CC1 [LC-15, 5-chloro-2-((4-(cyclopropanecarbonyl)piperazin-1-yl)methyl)benzo[d]isothiazol-3(2H)-one] | Active | 20 (≈ 7040 µg/mL) | 0.467 |  | Kd ([4]; Table 4, read-out: ITC KD): 0.114 µM; Kd [4, 8]: 0.114 µM |
| CC(C)(C)OC(=O)N1CCC(COc2nsc3ccccc23)CC1 [LC-16] | not active | 50 (≈ 17400 µg/mL) | > 50 | KD = N/A irreversible or not active |  |
| O=c1c2ccccc2sn1-c1ccccc1 [LC-24] | not active | 50 (≈ 11400 µg/mL) |  |  | EC50 (PC12 mHTT^Q103 cells; PC-12, read-out: Cell Viability Assay EC50): 1.13 µM; Kd [2, 6]: 0.0081 µM |
| O=c1c2ccccc2sn1-c1ccc(N2CCOCC2)cc1 [LC-27] | not active | 30 (≈ 9370 µg/mL) | 1.83 | KD = N/A irreversible or not active |  |
| O=c1[nH]sc2ncccc12 [LC-47] | not active | 50 (≈ 7610 µg/mL) | > 50 | KD = N/A irreversible or not active |  |
| Cc1cc(C)c2c(=O)n(CN3CCN(C(=O)C4CC4)CC3)sc2n1 [LC-53] | Active | 25 (≈ 8660 µg/mL) | 4.2 |  |  |
